{"source": "patent US9522947B2", "about": "“Peptidomimetic macrocycles” (Aileron Therapeutics, Inc., priority 2011, dated 2016)", "key": {"[1]": {"experiment": "Figure 9", "description": "Table printed on a drawing sheet, Figure 9\nFootnotes: ** literature values\nFirst reader's note: The Tesamorelin rows are literature values, and their species, dose and route are printed inside the label cell."}, "[2]": {"system": "growth hormone", "experiment": "Plasma PD study in rats: growth hormone production/release", "assay_type": "in vivo, Sprague-Dawley rats", "details": "FIG. 10", "experimental": "Five peptidomimetic macrocycles of the invention (SP-1, SP-6, SP-8, SP-21, SP-32), as well as sermorelin, were studied to determine pharmacokinetic and pharmacodynamic parameters in rats. Male Sprague-Dawley rats (300 g, non-fasted, cannulated) were used. The study had three arms: IV administration, SC administration, and SC administration (vehicle control). For experiments using sermorelin, a dose level of 3 mg/kg IV/SC bolus was used (dose volume of 3 mL/kg dose and dose concentration of 1 mg/mL). The vehicle used was: 10 wt % N, N-Dimethylacetamide, 10 wt % DMSO, 2 wt % Solutol HS 15 in water for injection containing 45 mg/mL (4.5 wt %) Mannitol and 25 mM (0.38 wt %) Histidine (pH 7.5; 320 mOsm/kg). The peptide was first dissolved at high concentration in DMA and DMSO before a second dilution in Solutol vehicle.\nFor experiments using peptidomimetic macrocycles, 0.1 mL of DMA and 0.1 mL of DMSO were used to combine with each mg of macrocycle (˜4.3-4.5 mg of macrocycle used in each experiment). Sonication was used to ensure complete solubilization. 0.8 mL of Solutol vehicle was used for each mg of macrocycle in DMA/DMSO. The solutions were mixed gently with pipet or light vortexing. Fresh vials were used for each day of dosing, and macrocycles were stored solid at −20° C. prior to formulation. […]"}, "[3]": {"details": "cited from earlier work"}}, "note": "Positions of bridges follow the written chain, without caps; N, C: chain ends. Non-standard residues stand in square brackets, D forms with d. Residues, ends and D or L forms follow the SMILES beside them. R8 = C=CCCCCCC[C@@](C)(N)C(=O)O; S5 = C=CCCC[C@](C)(N)C(=O)O; Nle = CCCC[C@H](N)C(=O)O", "data": [{"compound": "CCCC[C@H](NC(=O)[C@@H](NC(=O)[C@H](CC(=O)O)NC(=O)[C@H](CCC(N)=O)NC(=O)[C@H](CC(C)C)NC(=O)[C@]1(C)CCCC=CCCCCCC[C@@](C)(NC(=O)[C@H](CC(C)C)NC(=O)[C@@H](NC(=O)[C@H](CCCCN)NC(=O)[C@H](CCCNC(=N)N)NC(=O)[C@H](Cc2ccc(O)cc2)NC(=O)[C@H](CO)NC(=O)[C@]2(C)CCCC=CCCC[C@](C)(NC(=O)[C@H](CC(=O)O)NC(=O)[C@@H](C)NC(=O)[C@@H](N)Cc3ccc(O)cc3)C(=O)N[C@@H]([C@@H](C)CC)C(=O)N[C@@H](Cc3ccccc3)C(=O)N[C@@H]([C@@H](C)O)C(=O)N2)C(C)C)C(=O)N[C@@H](CCC(N)=O)C(=O)N[C@@H](CC(C)C)C(=O)N[C@@H](CO)C(=O)N[C@@H](C)C(=O)N[C@@H](CCCNC(=N)N)C(=O)N[C@@H](CCCCN)C(=O)N1)[C@@H](C)CC)C(=O)N[C@@H](CO)C(=O)N[C@@H](CCCNC(=N)N)C(N)=O", "note": "[SP-6] (H-Y[dA]D[S5]IFT[S5]SYRKVL[R8]QLSARK[S5]LQDI[Nle]SR-NH2; staple 4-8, 15-22)", "values": [{"measurement": "AUCinf |", "setting": "[1]", "value": 23477, "unit": "ng·h/mL"}, {"measurement": "Clp |", "setting": "[1]", "value": 2.13, "unit": "mL/min/kg"}, {"measurement": "MRT | hr", "setting": "[1]", "value": 3.7, "unit": "h"}, {"measurement": "Vdss |", "setting": "[1]", "value": 0.474, "unit": "L/kg"}, {"measurement": "t 1/2 | hr", "setting": "[1]", "value": 20.6, "unit": "h"}]}, {"compound": "CCCC[C@@H]1NC(=O)[C@H]([C@@H](C)CC)NC(=O)[C@H](CC(=O)O)NC(=O)[C@H](CCC(N)=O)NC(=O)[C@H](CC(C)C)NC(=O)[C@H](CC(C)C)NC(=O)[C@](C)(NC(=O)[C@H](CCCNC(=N)N)NC(=O)[C@H](C)NC(=O)[C@H](CO)NC(=O)[C@H](CC(C)C)NC(=O)[C@H](CCC(N)=O)NC(=O)CNC(=O)[C@H](CC(C)C)NC(=O)[C@@H](NC(=O)[C@H](CCCCN)NC(=O)[C@H](CCCNC(=N)N)NC(=O)[C@H](Cc2ccc(O)cc2)NC(=O)[C@H](CO)NC(=O)[C@]2(C)CCCC=CCCC[C@](C)(NC(=O)[C@H](CC(=O)O)NC(=O)[C@@H](C)NC(=O)[C@@H](N)Cc3ccc(O)cc3)C(=O)N[C@@H]([C@@H](C)CC)C(=O)N[C@@H](Cc3ccccc3)C(=O)N[C@@H]([C@@H](C)O)C(=O)N2)C(C)C)CCCCCCC=CCCC[C@@](C)(C(=O)N[C@@H](CCCNC(=N)N)C(N)=O)NC1=O", "note": "[SP-8] (H-Y[dA]D[S5]IFT[S5]SYRKVLGQLSAR[R8]LLQDI[Nle][S5]R-NH2; staple 4-8, 21-28)", "values": [{"measurement": "stimulation of growth hormone production", "setting": "[2]", "value": "stimulation of growth hormone production"}]}, {"compound": "CCCC[C@H](NC(=O)[C@@H](NC(=O)[C@]1(C)CCCC=CCCC[C@](C)(NC(=O)[C@H](CCCNC(=N)N)NC(=O)[C@H](C)NC(=O)[C@H](CO)NC(=O)[C@H](CC(C)C)NC(=O)[C@H](CCC(N)=O)NC(=O)CNC(=O)[C@H](CC(C)C)NC(=O)[C@@H](NC(=O)[C@]2(C)CCCC=CCCCCCC[C@@](C)(NC(=O)[C@H](C)NC(=O)[C@H](CC(=O)O)NC(=O)[C@@H](C)NC(=O)[C@@H](N)Cc3ccc(O)cc3)C(=O)N[C@@H](Cc3ccccc3)C(=O)N[C@@H]([C@@H](C)O)C(=O)N[C@@H](CC(N)=O)C(=O)N[C@@H](CO)C(=O)N[C@@H](Cc3ccc(O)cc3)C(=O)N[C@@H](CCCNC(=N)N)C(=O)N2)C(C)C)C(=O)N[C@@H](CC(C)C)C(=O)N[C@@H](CC(C)C)C(=O)N[C@@H](CCC(N)=O)C(=O)N1)[C@@H](C)CC)C(=O)N[C@@H](CO)C(=O)N[C@@H](CCCNC(=N)N)C(N)=O", "note": "[SP-21] (H-Y[dA]DA[R8]FTNSYR[S5]VLGQLSAR[S5]LLQ[S5]I[Nle]SR-NH2; staple 5-12, 21-25)", "values": [{"measurement": "Clp |", "setting": "[1]", "value": 1.65, "unit": "mL/min/kg"}, {"measurement": "MRT | hr", "setting": "[1]", "value": 5.3, "unit": "h"}, {"measurement": "Vdss |", "setting": "[1]", "value": 0.524, "unit": "L/kg"}, {"measurement": "t 1/2 | hr", "setting": "[1]", "value": 10.1, "unit": "h"}]}, {"compound": "CCCC[C@H](NC(=O)[C@@H](NC(=O)[C@H](CC(=O)O)NC(=O)[C@H](CCC(N)=O)NC(=O)[C@H](CC(C)C)NC(=O)[C@H](CC(C)C)NC(=O)[C@H](CCCCN)NC(=O)[C@H](CCCNC(=N)N)NC(=O)[C@]1(C)CCCC=CCCCCCC[C@@](C)(NC(=O)[C@H](CCCNC(=N)N)NC(=O)[C@H](Cc2ccc(O)cc2)NC(=O)[C@H](CO)NC(=O)[C@H](CC(N)=O)NC(=O)[C@@H](NC(=O)[C@H](Cc2ccccc2)NC(=O)[C@@H](NC(=O)[C@H](C)NC(=O)[C@H](CC(=O)O)NC(=O)[C@@H](C)NC(=O)[C@@H](N)Cc2ccc(O)cc2)[C@@H](C)CC)[C@@H](C)O)C(=O)N[C@@H](C(C)C)C(=O)N[C@@H](CC(C)C)C(=O)NCC(=O)N[C@@H](CCC(N)=O)C(=O)N[C@@H](CC(C)C)C(=O)N[C@@H](CO)C(=O)N1)[C@@H](C)CC)C(=O)N[C@@H](CO)C(=O)N[C@@H](CCCNC(=N)N)C(N)=O", "note": "[SP-32] (H-Y[dA]DAIFTNSYR[R8]VLGQLS[S5]RKLLQDI[Nle]SR-NH2; staple 12-19)", "values": [{"measurement": "Clp |", "setting": "[1]", "value": 1.35, "unit": "mL/min/kg"}, {"measurement": "MRT | hr", "setting": "[1]", "value": 2.3, "unit": "h"}, {"measurement": "Vdss |", "setting": "[1]", "value": 0.19, "unit": "L/kg"}, {"measurement": "t 1/2 | hr", "setting": "[1]", "value": 9.7, "unit": "h"}]}, {"compound": "CC/C=C/CC(=O)N[C@@H](Cc1ccc(O)cc1)C(=O)N[C@@H](C)C(=O)N[C@@H](CC(=O)O)C(=O)N[C@@H](C)C(=O)N[C@H](C(=O)N[C@@H](Cc1ccccc1)C(=O)N[C@H](C(=O)N[C@@H](CC(N)=O)C(=O)N[C@@H](CO)C(=O)N[C@@H](Cc1ccc(O)cc1)C(=O)N[C@@H](CCCNC(=N)N)C(=O)N[C@@H](CCCCN)C(=O)N[C@H](C(=O)N[C@@H](CC(C)C)C(=O)NCC(=O)N[C@@H](CCC(N)=O)C(=O)N[C@@H](CC(C)C)C(=O)N[C@@H](CO)C(=O)N[C@@H](C)C(=O)N[C@@H](CCCNC(=N)N)C(=O)N[C@@H](CCCCN)C(=O)N[C@@H](CC(C)C)C(=O)N[C@@H](CC(C)C)C(=O)N[C@@H](CCC(N)=O)C(=O)N[C@@H](CC(=O)O)C(=O)N[C@H](C(=O)N[C@@H](CCSC)C(=O)N[C@@H](CO)C(=O)N[C@@H](CCCNC(=N)N)C(=O)N[C@@H](CCC(N)=O)C(=O)N[C@@H](CCC(N)=O)C(=O)NCC(=O)N[C@@H](CCC(=O)O)C(=O)N[C@@H](CO)C(=O)N[C@@H](CC(N)=O)C(=O)N[C@@H](CCC(N)=O)C(=O)N[C@@H](CCC(=O)O)C(=O)N[C@@H](CCCNC(=N)N)C(=O)NCC(=O)N[C@@H](C)C(=O)N[C@@H](CCCNC(=N)N)C(=O)N[C@@H](C)C(=O)N[C@@H](CCCNC(=N)N)C(=O)N[C@@H](CC(C)C)C(N)=O)[C@@H](C)CC)C(C)C)[C@@H](C)O)[C@@H](C)CC", "note": "[Tesamorelin, dog 0.1 µg/kg IV**]", "values": [{"measurement": "AUCinf |", "setting": "[1]", "value": 5301, "unit": "ng·h/mL"}, {"measurement": "t 1/2 | hr", "setting": "[1]", "value": 0.4, "unit": "h"}]}, {"compound": "GHRH: Human GHRH (Growth Hormone-Releasing Hormone), a 44-amino-acid peptide", "values": [{"measurement": "half-life of GHRH after intravenous injection", "setting": "[3]", "value": "0.167 to 0.2", "unit": "h"}]}]}
